Read-outs that look alike come from different tables or passages of the source.
Key:
FMR1 mRNA = settings: Baicsi, 2008; cited from earlier work
X-inactivation = settings: cited from earlier work
MeCP2^tm1.1Jae mice = system: MeCP2^tm1.1Jae mice; parameters: key to Lifespan / Normal breathing / Motor function / Motility: ↑: increased; ↓: decreased; settings: cited from earlier work
histone acetylation = settings: brief description of the histone acetylation mechanism; cited from earlier work
MeCP2^1lox mice = system: MeCP2^1lox mice; parameters: key: ↑: increased; ↓: decreased; settings: Schaevitz, 2012, cited from earlier work
Non-Hodgkin's Lymphoma = settings: continued regime of DCA and thiamine; cited from earlier work
[1] = Flavin, 2010; cited from earlier work
[2] = radioactive DCA; exhaled in breath; cited from earlier work
MeCP2^tm1.1Bird mice = system: MeCP2^tm1.1Bird mice; parameters: key: ↑: increased; ↓: decreased; settings: cited from earlier work
Human females = system: Human females; parameters: key to Apneias: ↑: increased; ↓: decreased; settings: cited from earlier work; for Apneias: Krajnc, 2013, Khwaja, 2014
[3] = system: Fragile X syndrome patients; settings: 12 weeks; from ˜50%; cited from earlier work
[4] = system: polyglutamine induced cell death; settings: McCampbell, 2001; cited from earlier work
[5] = system: Silenced MeCP2 in mouse neurons; parameters: key: ↑: increased; ↓: decreased; settings: Ma, 2015; cited from earlier work
16 month old mice = settings: Peleg, 2010; cited from earlier work
R6/2 HD mice = settings: cited from earlier work
animals = settings: cited from earlier work
Rats = settings: 30 days, diet with 28.5% of total calories supplied by Triacetin; cited from earlier work
[6] = system: adult offspring of Low LG maternal care; settings: Weaver et al., 2004; cited from earlier work
MeCP2 KO mice = system: MeCP2 KO mice; parameters: key: ↑: increased; ↓: decreased; settings: Park, 2014; cited from earlier work
[7] = system: MeCP2-mutated human fibroblasts; test: Tubastatin A in MeCP2-mutated human fibroblasts; settings: 1 μM versus 5 mM butyrate
[8] = system: MeCP2-mutated human fibroblasts; settings: Gold, 2015; cited from earlier work
HDAC = settings: Ookubo, 2013; cited from earlier work
[9] = system: ectopically methylated DNA; settings: cells harvested 48 hours after treatment; cited from earlier work
histones = settings: radiolabeled acetate; cited from earlier work
cultured colon cells = settings: Mariadason, 2000; cited from earlier work
MeCP2^tm1HzO mice = system: MeCP2^tm1HzO mice; parameters: key: ↑: increased; ↓: decreased; settings: Ben-Zeev, 2011, cited from earlier work
MecP2-null mice = system: MecP2-null mice; parameters: key to Lifespan / Normal breathing / Motor function: ↑: increased; ↓: decreased; settings: 2009, cited from earlier work

Nc1ncn([C@H]2C[C@H](O)[C@@H](CO)O2)c(=O)n1 [5-azadC, 5-aza-2′-deoxycytidine]
FMR1 mRNA relative to normal control cells (FMR1 mRNA): approximately 20% | number of cells that lost their X-inactivation (X-inactivation; Xist on): 19 × as many compared to controls | number of cells that lost their X-inactivation (X-inactivation; combined with Xist deletion): 30 × as many compared to controls

O=c1cc(-c2ccccc2)oc2c(O)c(O)ccc12 [7,8-dihydroxyflavone]
Lifespan (MeCP2^tm1.1Jae mice; Johnson, 2011): ↑ Lifespan, ↑ Normal breathing, | Motor function (MeCP2^tm1.1Jae mice; Johnson, 2011): ↑ Motor function | Normal breathing (MeCP2^tm1.1Jae mice; Johnson, 2011): ↑ Lifespan, ↑ Normal breathing,

CC(=O)O[C@H](CC(=O)[O-])C[N+](C)(C)C [Acetyl-L-Carnitine]
Histone acetylation (mechanism) (histone acetylation): Increases Acetyl-CoA | Motor function (MeCP2^1lox mice; Nag, 2007): ↑ Motor function | Forepaw grip strength (MeCP2^1lox mice): ↑ Forepaw grip strength,

O=C(O)C(Cl)Cl [DCA, dichloroacetate]
monthly blood tests (Non-Hodgkin's Lymphoma): normal | toxicity of prolonged exposure [1]: peripheral neuropathy | fraction metabolized to carbon dioxide [2]: up to 50%

CNCCCN1c2ccccc2CCc2ccccc21 [Desipramine]
TH expressing neurons (MeCP2^tm1.1Bird mice; Roux, 2007, Szczesna, 2014): ↑ | Apneas (MeCP2^tm1.1Bird mice; Roux, 2007): ↓

CNC1(c2ccccc2Cl)CCCCC1=O (stereo not shown) [Ketamine]
Histone acetylation (mechanism) (histone acetylation): HDACi activity in the Nucleus | PPI of the ASR (cognitive function) (MeCP2^tm1.1Jae mice; Kron, 2012): Improved PPI of the ASR (cognitive

C[N+](C)(C)C[C@H](O)CC(=O)[O-] [L-Carnitine]
Histone acetylation (mechanism) (histone acetylation): Increases Acetyl-CoA | Hand Apraxia Scale assessment (Human females; Ellaway, 1999): no effect on Hand Apraxia Scale | Patient Well Being Index (Human females; Ellaway, 1999): Improved Patient Well Being Index,

N[C@@H](Cc1ccc(O)c(O)c1)C(=O)O [Levodopa]
Histone acetylation (mechanism) (histone acetylation): Histone acetylation, | TH expressing neurons (MeCP2^tm1.1Bird mice; Roux, 2007, Szczesna, 2014): ↑ TH expressing neurons | Hind-limb clasping (MeCP2^tm1.1Bird mice; Szczesna, 2014): ↓ | Lifespan (MeCP2^tm1.1Bird mice; Szczesna, 2014): ↑ | Motor function (MeCP2^tm1.1Bird mice; Szczesna, 2014): ↑ | Tremor (MeCP2^tm1.1Bird mice; Szczesna, 2014): ↓

CC[C@H](C)C(=O)O[C@H]1C[C@@H](C)C=C2C=C[C@H](C)[C@H](CC[C@@H]3C[C@@H](O)CC(=O)O3)[C@H]21 [Lovastatin]
Aberrant Behavior Checklist score [3]: ~30%

O=C(O)CCCc1ccccc1 [PBA, phenylbutyric acid]
ability to reduce cell death [4]: reduction in cell death | expression of AR [the mutant protein] [4]: slightly increased

CCCC(C)C1(CC)C(=O)NC(=O)NC1=O (stereo not shown) [Pentobarbatol]
Synaptic transmission (calcium spikes) [5]: ↑Synaptic transmission (calcium | dendrite growth [5]: ↑ dendrite growth,

O=C(CCCCCCC(=O)Nc1ccccc1)NO [SAHA, Vorinostat]
memory (16 month old mice): improves | Motor function (R6/2 HD mice; added to drinking water): marked improvement | blood-brain barrier crossing (R6/2 HD mice; mouse, in vivo): crosses the blood-brain barrier | histone acetylation in the brain (R6/2 HD mice; mouse, in vivo): increases | ability to reduce cell death [4]: comparable to TSA | expression of AR [the mutant protein] [4]: slightly increased

O=C1CCc2c(ccc3ccccc23)O1 [Splitomycin]
FMR1 mRNA relative to normal control cells (FMR1 mRNA): approximately 20%

CC1(C)O[C@@H]2[C@@H](CO[C@@]3(COS(N)(=O)=O)OC(C)(C)O[C@@H]23)O1 [Topiramate]
Histone acetylation (mechanism) (histone acetylation): HDACi | Apneias (Human females): ↓ Apneias

CC(=O)OCC(COC(C)=O)OC(C)=O [Triacetin, glycerin triacetate]
metabolism (animals; CIREP, 2003): quickly metabolized into glycerol and acetic acid | toxicity in acute oral or dermal exposures (animals; CIREP, 2003): not toxic | tolerated triacetin as a percentage of total diet (animals; replacing conventional carbohydrates, Shapira, 1968): up to 20% | signs of toxicity (Rats): No overt signs of toxicity

CC(/C=C/C(=O)NO)=C\[C@@H](C)C(=O)c1ccc(N(C)C)cc1 [Trichostatin A]
acetylation [6]: increased | glucocorticoid receptor gene activation [6]: to levels indistinguishable from adult offspring of High LG maternal care | methylation [6]: reduced | stress response [6]: reduced | X-inactivation of the cells (X-inactivation; even if Xist was turned off): no change | ability to reduce cell death [4]: reduce cell death | expression of AR [the mutant protein] [4]: slightly increased

CCCCCCC(=O)OCC(COC(=O)CCCCCC)OC(=O)CCCCCC [Triheptanoin]
Histone acetylation (mechanism) (histone acetylation): Metabolizes to Acetyl-CoA | Lifespan (MeCP2 KO mice): ↑ Lifespan, ↑ Social interaction, | Motor function (MeCP2 KO mice): ↑ Motor function | Social interaction (MeCP2 KO mice): ↑ Lifespan, ↑ Social interaction,

CN1CCc2c(c3ccccc3n2Cc2ccc(C(=O)NO)cc2)C1 [Tubastatin A]
HDACi activity relative to butyrate [7]: 5000 times | concentration at which it is a specific HDACi inhibitor (as low as) [8]: 1 µM | mictotubules depolymerization [8]: Protects mictotubules from | Histone acetylation (mechanism) (histone acetylation): HDACi

CCCC(CCC)C(=O)O [Valproic acid]
Histone acetylation (mechanism) (histone acetylation): HDACi | HDAC inhibitor activity (HDAC): HDAC inhibitors | demethylation of ectopically methylated DNA [9]: stimulates active demethylation | Motility (MeCP2^tm1.1Jae mice; Guo, 2014): ↑ Motility, | gene expression in brain (MeCP2^tm1.1Jae mice; Guo, 2014): Normalized gene expression in brain | neurological symptoms (MeCP2^tm1.1Jae mice; Guo, 2014): Improved neurological symptoms,

CC(=O)O [acetate]
time for histones to become significantly acetylated (histones): ≤ 15 min

NC(=O)N1c2ccccc2C=Cc2ccccc21 [carbamazepine]
HDAC inhibitor activity (HDAC): HDAC inhibitors

CN(C)CCCN1c2ccccc2CCc2ccc(Cl)cc21 [clomipramine]
HDAC inhibitor activity (HDAC): HDAC inhibitors

CNCC[C@H](Oc1cccc2ccccc12)c1cccs1 [duloxetine]
HDAC inhibitor activity (HDAC): HDAC inhibitors

Nc1nnc(-c2cccc(Cl)c2Cl)c(N)n1 [lamotrigine]
HDAC inhibitor activity (HDAC): HDAC inhibitors

CC[C@@H](C(N)=O)N1CCCC1=O [levetriacetam]
HDAC inhibitor activity (HDAC): HDAC inhibitors

[Cl-].[Li+] [lithium chloride]
HDAC inhibitor activity (HDAC): HDAC inhibitors

NC(=O)N1c2ccccc2CC(=O)c2ccccc21 [oxcarbazepine]
HDAC inhibitor activity (HDAC): HDAC inhibitors

CCCC(=O)[O-].[Na+] [sodium butyrate]
number of genes modified relative to TSA (cultured colon cells): roughly 10 times | ability to reduce cell death [4]: reduction in cell death | expression of AR [the mutant protein] [4]: slightly increased

Glatiramer acetate
BDNF (MeCP2^tm1HzO mice): ↑ BDNF | BDNF (MeCP2^tm1HzO mice; text): increase | Histone acetylation (mechanism) (histone acetylation): Contains acetate

IGF-1: Insulin-like Growth Factor 1
9 separate measures of RTT symptoms in mice (MecP2-null mice; MeCP2 mutant mice, Tropea): partially rescued | Lifespan (MecP2-null mice; Trpoea): ↑ Lifespan, ↑ Normal breathing, | Motor function (MecP2-null mice; Trpoea): ↑ Motor function | Normal breathing (MecP2-null mice; Trpoea): ↑ Lifespan, ↑ Normal breathing, | Histone acetylation (mechanism) (histone acetylation): Increases H3, H4 Histone | Apneias (Human females): ↓ Apneias

B1: Exogenous BDNF: Brain Derived Neurotrophic Factor protein, given exogenously (protein, UniProt P23560 129-247, looked up)
Neurotrophic factor BDNF: HSDPARRGELSVCDSISEWVTAADKKTAVDMSGGTVTVLEKVPVSKGQLKQYFYETKCNPMGYTKEGCRGIDKRHWNSQCRTTQSYVRALTMDSKKRIGWRFIRIDTSCVCTLTIKRGR
modifications: Neurotrophic factor BDNF
synaptic function in brainstem slices (MeCP2^tm1.1Jae mice; Kline, 2010, listed as exogenous BDNF): normalize
